Entries after “also recorded” stand apart in the source; their conditions may differ.
Legend:
H2AX = experiment: Western blot of H2AX after siRNA transfection; format: cell-based, human
Description: (§1) All the cells used in the following examples are human cells and express H2AX.
(§2) The cells are cultured in DMEM or RPMI supplemented with 10% fetal calf serum, or as recommended by the ATCC. When indicated, they are transfected with siRNA using lipofectamine (Life Technologies), following the supplier's protocol. The number of living cells after the indicated treatments was quantified by measuring their metabolic activity by the WST1 test according to the supplier's indications (Roche).
(§3) The effect of siRNA transfection and/or treatments by different chemotherapeutic agents on gene expression was measured: • by RT-qPCR quantification of mRNAs extracted by a conventional phenol-chloroform method (Trizol). The amount of RNA was normalized by measuring the cyclophilin A-encoding mRNA which is not regulated by AR (delta delta CT method). • by Western blotting on protein extracts. The antibodies used are: AR: Santacruz, N-20 sc-816; H2AX: Merck Millipore ref 07-627; Tubulin: Sigma T6199; Actin: Merck Millipore MAB 1501; γH2AX: Merck Millipore 05-636. […] The antibodies used are the following: γH2AX: Merck Millipore 05-636; 53BP1: Novus, NB 100-304.

PSA-encoding mRNA = experiment: RT-qPCR of PSA-encoding mRNA after siRNA transfection; format: cell-based, human; conditions: LNCaP or C4-2 cells, both lines, 72 hours after transfection
Description: as §1, §2, §3
In the experiment shown in FIG. 4, the LNCaP or C4-2 tumor cells were transfected with the following siRNAs: Cont, siAR7 or siARH2AX-1.

AR-encoding mRNA = experiment: RT-qPCR of AR-encoding mRNA after siRNA transfection; format: cell-based, human; conditions: for AR mRNA expression: both lines
Description: as §1, §2, §3

MDA MB-453 cells = experiment: WST1 cell viability test; format: cell-based, human; conditions: 72 hr after transfection
Description: as §1, §2

U87 cells = experiment: WST1 cell viability test; format: cell-based, human; conditions: 72 hr after transfection
Description: as §1, §2

MDA MB231 cells = experiment: WST1 cell viability test; format: cell-based, human
Description: as §1, §2

22RV1 cells = experiment: WST1 cell viability test; format: cell-based, human; conditions: 72 hr after transfection
Description: as §1, §2

LNCaP cells = experiment: WST1 cell viability test; format: cell-based, human
Description: as §1, §2

C4-2 cells = experiment: WST1 cell viability test; format: cell-based, human
Description: as §1, §2

WM266-4 cells = experiment: WST1 cell viability test; format: cell-based, human
Description: as §1, §2

H2AX-encoding mRNA = experiment: RT-qPCR of H2AX-encoding mRNA after siRNA transfection; format: cell-based, human
Description: as §1, §2, §3

[1] = siRNA distribution by RT-qPCR, continuous subcutaneous osmotic pump; format: in vivo; conditions: 2 mg/kg/day continuous subcutaneous, 3 days, 22RV1 tumor-bearing mice; 10 mM citrate buffer pH 6 with oxidized LDL (1:0.1 weight:weight) versus 154 mM NaCl
Description: To quantify a siRNA in the biological samples, the inventors have developed a reverse transcription method followed by a quantitative PCR (RT-qPCR). For each siRNA, a specific stem-loop primer, having 8 overflowing nucleotides is synthesized, the 8 nucleotides being complementary to the 8 nucleotides of the 3′ end of the siRNA guide (antisense) strand. After a reverse transcription step, the product obtained is amplified by PCR using two primers, one hybridizing with the region corresponding to the loop of the reverse transcription primer. The 12 nucleotides at 3′ of the second primer having a DNA sequence corresponding to the 12 nucleotides of the 5′ end of the newly synthesized cDNA after reverse transcription of the siRNA guide strand. Detection of the amplification is carried out continuously by the degradation of a Taqman fluorescent probe or by incorporation of SybrGreen.
A range of double stranded siRNAs, from 10^3 to 10^9 copies in the RT reaction, diluted in water is made and treated together with the samples by RT-qPCR.
The biological samples in which siRNAs are quantified are either serum or total RNAs extracted from tissue fragments of known weight assumed to contain siRNA. […]
At the end of the experiment, the animals are sacrificed, the serum, the tumors and different tissues are dissected, the extracted RNAs and the siRNAs present in these RNAs are quantified. […]

human AR mRNA = experiment: AR mRNA in tibia of 22RV1 tumor-bearing mice; format: in vivo; conditions: Nude mice with 22RV1 tumors, 0.2 mg/kg/day continuous subcutaneous, 3 weeks, in 154 mM NaCl
Description: Left panel: Expression level of human AR mRNA in nude mouse tibia carrying 22RV1 human prostate tumors in vehicle-treated mice (154 mM NaCl, black bar) or siARH2AX-1 diluted in this vehicle (gray bar) and administered subcutaneously continuously for 3 weeks (mean±SEM, n=7 values relative to the mean value of the NaCl group).
(§4) Tumors are obtained by subcutaneous injection of tumor cells into the flank of Nude mice. Only animals on which tumor uptake is found are included in the study and randomized to receive treatment or control treatment.
When indicated, the continuous administration of siRNA is carried out by implantation of an Alzet osmotic pump subcutaneously on the back of the mice, on the opposite side to the tumor when the mice wear one. […]
(§5) At the end of the experiment, the animals are sacrificed, the serum, the tumors and different tissues are dissected, the extracted RNAs and the siRNAs present in these RNAs are quantified.
(§6) In the experiment shown in FIG. 14, 22RV1 cells were implanted in Nude mice. Once the tumor was detected, Alzet pumps administering either 0.2 mg/kg/day siARH2AX-1 siRNA formulated in saline (154 mM NaCl), or the vehicle alone, were implanted for 3 weeks. At the end of treatment, the bones (tibia) were recovered to quantify siARH2AX-1, and the androgen receptor- and the HPRT-encoding mRNAs of human origin.

53BP1 = experiment: Indirect immunofluorescence of 53BP1, bleomycin-treated transfected cells; format: cell-based, human
Description: (§7) FIG. 8: Immuno detection of γH2AX (first column) and 53BP1 (second column) in C4-2 cells treated for 6 h with bleomycin ([…]) or the vehicle added 72 h after transfection of cells by a control siRNA (Cont), siAR7 siRNA, or siARH2AX-1.
as §1, §2, §3
(§8) In the experiment shown in FIG. 8, C4-2 cells were transfected with a control or siARH2AX-1 siRNA. 72 hours after transfection, the cells were then treated for 6 hours with […] of bleomycin or the corresponding vehicle.

[2] = tested on: 22RV1 human prostate tumors; experiment: Bone metastases of 22RV1 tumors in Nude mice (human HPRT mRNA); format: in vivo; conditions: 0.2 mg/kg/day continuous subcutaneous, 3 weeks, in 154 mM NaCl
Description: Right panel: Metastatic load in bone as measured by the expression of human HPRT mRNA in both groups of animals. Each bar represents bone metastatic load in a mouse.
as §4
(§9) When indicated, the continuous administration of siRNA is carried out by implantation of an Alzet osmotic pump subcutaneously on the back of the mice, on the opposite side to the tumor when the mice wear one. The concentration of siRNA in the pump is adjusted to deliver the indicated amount in mg/kg/day taking into account the pump flow rate indicated by the manufacturer.
as §5, §6

[3] = tested on: 22RV1 human prostatic tumor; experiment: Subcutaneous tumor volume in mice; format: in vivo; conditions: 2 mg/kg/day
Description: as §4, §9
The subcutaneous tumors volume is estimated by measuring with a calliper the largest (D), the smallest (d) diameter of the tumors and their height (h). The volume is calculated by the formula V=D×d×h×Pi/6.

γH2AX [4] = experiment: Western blot of γH2AX after siRNA transfection; format: cell-based, human; conditions: PC3 cells, 72 hours after transfection
Description: as §1, §2, §3

AR = experiment: Western blot of AR after siRNA transfection; format: cell-based, human; conditions: C4-2 cells, 72 h after transfection
Description: as §1, §2, §3

γH2AX [5] = experiment: Indirect immunofluorescence of γH2AX, bleomycin-treated transfected cells; format: cell-based, human; conditions: 72 hours after transfection
Description: as §7, §1, §2, §3, §8

[6] = C4-2 cells, 48 hours after transfection, relative to control siRNA
[7] = 40 μl of etoposide added 24 hours after transfection, WST1 48 h later

## siARH2AX-1: bispecific AR-H2AX siRNA, SEQ ID NO: 1 GACUCAGCUGCCCCAUCCA[dT][dT] and SEQ ID NO: 2 UGGAUGGGGCAGCUGAGUC[dT][dT] (chain 1 GACUCAGCUGCCCCAUCCANN; chain 2 UGGAUGGGGCAGCUGAGUCNN; 3' dTdT overhangs, chemistry not fully specified)
H2AX; C4-2 cells, 72 h after transfection
  H2AX protein expression: inhibits the expression of both AR and H2AX proteins
H2AX; PC3 cells, 72 hours after transfection
  H2AX protein expression: is inhibited
PSA-encoding mRNA
  PSA mRNA expression: inhibit the expression of AR and PSA
AR-encoding mRNA; [6]
  AR expression (mRNA): inhibit AR expression in a similar manner
AR-encoding mRNA; LNCaP or C4-2 cells, 72 hours after transfection
  AR mRNA expression: inhibit the expression of AR and PSA
AR-encoding mRNA; LNCaP or MDA MB-453 cells, 72 h after transfection
  AR mRNA expression: inhibits the expression of the two AR- and H2AX-encoding mRNAs
MDA MB-453 cells
  cell viability / proliferation: inhibits the proliferation of all cell lines
U87 cells
  cell viability / proliferation: inhibits the proliferation of all cell lines
MDA MB231 cells; [7]
  cell viability, siRNA combined with etoposide: potentiate when combined
MDA MB231 cells; 72 hr after transfection
  cell viability / proliferation: inhibits the proliferation of all cell lines
MDA MB231 cells; 90 hours after transfection
  cell viability: significantly reduced
22RV1 cells
  cell viability / proliferation: inhibits the proliferation of all cell lines
LNCaP cells; 72 hr after transfection
  cell viability / proliferation: inhibits the proliferation of all cell lines
LNCaP cells; bleomycin (10 μM)
  cell survival, siRNA combined with bleomycin, versus addition of the separate effects: approximately twice as inhibitory
C4-2 cells; 72 hr after transfection
  cell viability / proliferation: inhibits the proliferation of all cell lines
C4-2 cells; 90 hours after transfection
  cell viability: significantly reduced
C4-2 cells; bleomycin (10 μM) added 48 hours after transfection, read 48 hours later, versus chemotherapeutic agent alone
  cell viability, siRNA combined with bleomycin: potentiate to inhibit cell viability
C4-2 cells; etoposide (10 μM) added 48 hours after transfection, read 48 hours later, versus chemotherapeutic agent alone
  cell viability, siRNA combined with etoposide: potentiate to inhibit cell viability
WM266-4 cells; [7]
  cell viability, siRNA combined with etoposide: potentiate when combined
WM266-4 cells; 72 hr after transfection
  cell viability / proliferation: inhibits the proliferation of all cell lines
H2AX-encoding mRNA; [6]
  H2AX expression (mRNA): much more effective than siAR2 siRNA in inhibiting H2AX expression
H2AX-encoding mRNA; LNCaP or C4-2 cells, both lines, 72 hours after transfection
  inhibition of H2AX mRNA expression: more than 90%
H2AX-encoding mRNA; LNCaP or MDA MB-453 cells, both lines, 72 h after transfection
  H2AX mRNA expression: inhibits the expression of the two AR- and H2AX-encoding mRNAs
[1]
  concentration of siARH2AX-1 in serum, different organs and tumors: increases the concentration
Human AR mRNA
  expression of the androgen receptor in the bones (tibia): inhibit the expression of the androgen receptor
53BP1; C4-2 cells, 72 hours after transfection, without bleomycin, compared to control condition
  expression of 53BP1: comparable
53BP1; conclusion from γH2AX/53BP1 experiment in C4-2 cells
  DNA repair: inhibits DNA repair
53BP1; siRNA-transfected C4-2 cells, 72 hours after transfection, bleomycin 6 hours
  recruitment of 53BP1 to DNA lesions after bleomycin: no increase H2AX or recruitment of 53BP1
[2]
  number of mice spontaneously developing bone metastases: decrease in the number of mice spontaneously developing bone metastases
  size of bone metastases (human HPRT mRNA level in bone): decrease in the size of these tumors
[3]; siARH2AX-1 2 mg/kg/day continuous subcutaneous plus etoposide intraperitoneal
  tumor development, combination with etoposide: potentiates the effect of these two treatments taken separately; also recorded: amplifies tumor growth inhibition
[3]; siARH2AX-1 2 mg/kg/day continuous subcutaneous, 22 days, 10 mM citrate buffer pH 6 with 10 mM MgCl2
  tumor development: as effective as the high dose of etoposide; also recorded: effectively inhibits tumor development
γH2AX [4]
  γH2AX phosphorylated form: inhibition of its γH2AX phosphorylated form
AR
  AR protein expression: inhibits the expression of both AR and H2AX proteins
γH2AX [5]; C4-2 cells, without bleomycin, compared to control condition
  expression of H2AX (immunofluorescence): very small compared to the control condition
γH2AX [5]; siRNA-transfected C4-2 cells, bleomycin 6 hours
  γH2AX labeling after bleomycin: no increase H2AX

Source: patent publication US20210292755A1, “NOVEL DOUBLE-STRANDED OLIGONUCLEOTIDES FOR THE TREATMENT OF CANCER” (SELEXEL, priority 2016, published 2021)
